# Laboratory results taken from US8410284B2, “Cyclic benzimidazole derivatives useful as anti-diabetic agents” (Merck Sharp & Dohme Corp, priority 2008, dated 2013).
# Counter-ions that a name gives are not always drawn.
# Experiments:
# [1] = target: recombinant human AMPK complex 1 (containing α1β1γ1) (Homo sapiens, UniProt Q13131+Q9Y478); test: In vitro AMPK activation assay (AMPKSAMSF); type: biochemical; details: recombinant human AMPK complex 1 (α1β1γ1); for Emax: read-out: maximum AMP activation
# Sequence of recombinant human AMPK complex 1 (containing α1β1γ1) (Q13131 whole entry): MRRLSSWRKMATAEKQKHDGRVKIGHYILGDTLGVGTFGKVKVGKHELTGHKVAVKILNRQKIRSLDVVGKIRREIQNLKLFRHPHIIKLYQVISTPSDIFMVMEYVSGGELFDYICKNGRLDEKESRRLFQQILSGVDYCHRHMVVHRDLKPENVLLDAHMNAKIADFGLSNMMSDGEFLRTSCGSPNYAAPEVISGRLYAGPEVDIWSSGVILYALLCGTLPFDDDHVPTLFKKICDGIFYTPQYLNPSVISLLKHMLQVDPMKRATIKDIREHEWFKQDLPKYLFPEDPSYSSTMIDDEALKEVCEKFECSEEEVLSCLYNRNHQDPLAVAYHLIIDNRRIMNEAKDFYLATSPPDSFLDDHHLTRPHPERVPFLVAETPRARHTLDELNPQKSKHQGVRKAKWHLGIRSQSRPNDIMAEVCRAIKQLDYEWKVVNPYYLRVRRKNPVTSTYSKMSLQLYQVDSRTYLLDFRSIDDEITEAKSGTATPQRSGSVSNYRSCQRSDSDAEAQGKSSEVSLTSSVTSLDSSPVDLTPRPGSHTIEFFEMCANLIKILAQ
# Sequence of recombinant human AMPK complex 1 (containing α1β1γ1) (Q9Y478 whole entry): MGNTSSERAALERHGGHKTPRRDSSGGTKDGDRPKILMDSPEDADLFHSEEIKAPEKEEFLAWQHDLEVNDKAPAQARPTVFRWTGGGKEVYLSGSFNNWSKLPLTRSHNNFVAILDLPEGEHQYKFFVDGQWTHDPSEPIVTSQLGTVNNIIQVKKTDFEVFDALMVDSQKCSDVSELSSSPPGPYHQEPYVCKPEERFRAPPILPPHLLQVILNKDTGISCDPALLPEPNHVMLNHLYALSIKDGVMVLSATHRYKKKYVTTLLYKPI
# Sequence of recombinant human AMPK complex 1 (containing α1β1γ1) (P54619 whole entry partner): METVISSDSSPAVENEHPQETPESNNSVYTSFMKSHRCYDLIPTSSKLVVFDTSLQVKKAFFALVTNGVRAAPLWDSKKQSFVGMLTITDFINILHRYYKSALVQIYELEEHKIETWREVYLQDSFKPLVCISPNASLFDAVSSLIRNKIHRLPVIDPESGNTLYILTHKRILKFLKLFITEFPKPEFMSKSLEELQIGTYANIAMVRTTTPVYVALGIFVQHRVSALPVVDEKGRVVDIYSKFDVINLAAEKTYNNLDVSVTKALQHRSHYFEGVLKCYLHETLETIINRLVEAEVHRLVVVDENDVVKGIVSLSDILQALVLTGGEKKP
# Protocol: AMPKSAMSF (In Vitro AMPK Activation Assay)
# The recombinant human AMPK complex 1 (containing α1β1γ1) was obtained from baculovirus expression system. Recombinant viruses were generated by cotransfection of AMPK/pBacPak9 clones with Baculogold baculovirus DNA (Pharmingen) in spodoptera frugiperda 21 cells according to the manufacturer's instructions. Each round of virus amplification was performed for 5 days in Grace's medium containing 10% serum. Virus that had been subjected to three rounds of amplification was used for all protein production procedures. To express the AMPK complex, sf21 cells were adapted to serum free medium (SF900 II, Invitrogen) by sequential dilution from serum containing stocks into SF900 II medium and maintained in shaker flasks at 90 rpm at 27° C. The recombinant AMPK enzyme complex was produced by triple infection, one recombinant virus for each of the subunits, in sf21 cells under serum free conditions. Cells were infected in log phase, 1×10^6 cells/ml, at a multiplicity of infection of ˜5. Cells were harvested by centrifugation at 10,000×g for 15 minutes after 72 hours of infection with viruses. The insect cell pellet from 2 liters of culture was resuspended in 50 ml lysis buffer (20 mM Tris-HCl, 50 mM NaCl, 50 mM NaF, 30 mM Na PPi, 0.25 M sucrose, 10 mM ZnCl2, 2 mM DTT, 0.4 mg/ml digitonin) and subjected to two cycles of freeze-thaw lysis in a dry-ice ethanol bath. Insoluble material was removed by centrifugation at 10,000×g and the supernatant was fractionated with use of polyethylene glycol (PEG). The protein fraction precipitating between 2.5 and 6% PEG was used for further purification using a Blue-Sepharose step (Zhou et al, J. Clin. Invest. 108, 1167-1174, 2001).
# The total in vitro AMPK activation assay volume is 50 μl in a 96-well plate. The reaction mixture contained 100 μM ATP (0.5 μCi ^33P-ATP per reaction), and 50 μM SAMS (HMRSAMSGLHLVKRR) in a buffer (20 mM HEPES, pH 7.0, 5 mM MgCl2, 0.01% Brij35). The reaction was initiated with addition of the enzyme. After 30-minute incubation at 30° C., the reaction was stopped by addition of 80 μl 1% H3PO4. Aliquots (100 μl) were transferred to 96-well MultiScreen plates (MAPHNOB50; Millipore Corp., Bedford, Mass., USA). The plate was washed three times with 1% H3PO4 followed by detection in a Top-count. The counts per minute from the basal activity (the reaction without activator) was subtracted from each well and the data were expressed as % maximum AMP activation followed by EC50 calculation.
# ob/ob and db/db mice = details: following 8 weeks of administration; cited from earlier work
Compound,Emax [1] [%],melting point [°C],EC50 [1] [nM],% Maximum AMP Activation of human AMPK Complex 1 ([1]; basal activity subtracted) [%],blood glucose reduction (ob/ob and db/db mice) [%]
"Cc1ccc(Cc2nc3cc(-c4ccc(-c5ccccc5)cc4)c(Cl)cc3[nH]2)cc1P(=O)(O)O [Example 11, {5-[(5-biphenyl-4-yl-6-chloro-1H-benzimidazol-2-yl)methyl]-2-methylphenyl}phosphonic acid]",> 80,> 220,–,–,–
"O=P(O)(O)c1cccc(Oc2nc3cc(-c4ccc(-c5ccccc5)cc4)c(Cl)cc3[nH]2)c1 [Example 2, ((5-(4-Biphenyl)-6-chloro-1H-benzimidazol-2-yl)oxo)phen-3-ylphosphonic acid]",> 80,199 to 205,2.5,205,–
NC(=O)c1ncn([C@@H]2O[C@H](CO)[C@@H](O)[C@H]2O)c1N [AICAR],–,–,–,–,35
"Cc1ccc(Oc2nc3cc(-c4ccc(-c5ccccc5)cc4)c(Cl)cc3[nH]2)cc1P(=O)(O)O (as salt: salt) [Example 1, ((5-(4-Biphenyl)-6-chloro-1H-benzimidazol-2-yl)oxo)-4-methylphen-3-ylphosphonic acid]",–,225 to 228,–,–,–
"Cc1ccc(Oc2nc3cc(-c4ccc(-c5ccccc5)cc4)c(Cl)cc3[nH]2)cc1[P@@]1(=O)OCC[C@@H](c2cccc(Cl)c2)O1 (relative stereo) [Example 20, Cis-5-Biphenyl-4-yl-6-chloro-2-[3-[4-(3-chloro-phenyl)-2-oxo-2-lambda*5*-[1,3,2]dioxaphosphinan-2-yl]4-methyl-phenoxy]-1H-benzoimidazole]",> 80,–,–,–,–
